Assay: Survival of beagle dogs during the dCF bioavailability study
Assay type: in vivo
Conditions: four female beagle dogs, 0.25 mg/kg IV or 1.25-5.0 mg/kg PO for 2 days
From the text: Four female beagle dogs were assigned to this study.

OC[C@H]1O[C@@H](n2cnc3c2NC=NC[C@H]3O)C[C@@H]1O [dCF, 2'-deoxycoformycin]
mortality during the course of the study: None of the dogs died
